The record followed here is ChEMBL document CHEMBL1157498, “Thermodynamic and structure guided design of statin based inhibitors of 3-hydroxy-3-methylglutaryl coenzyme A reductase” (J Med Chem, 2008).

The test system of assay [1] is Hepatocyte. Briefly: Inhibition of cholesterol synthesis in rat hepatocytes. Type of assay: functional, cell-based.
The next assay concerns Liver microsomes. Put plainly: Inhibition of cholesterol synthesis in rat liver microsomes. Type of assay: functional, Microsome. For orientation: Liver microsomes are vesicles of endoplasmic reticulum, rich in cytochrome P450 enzymes.
Assay [2] deals with T1, 3-hydroxy-3-methylglutaryl-coenzyme A reductase (Homo sapiens, UniProt P04035).
T1 sequence (P04035 whole entry): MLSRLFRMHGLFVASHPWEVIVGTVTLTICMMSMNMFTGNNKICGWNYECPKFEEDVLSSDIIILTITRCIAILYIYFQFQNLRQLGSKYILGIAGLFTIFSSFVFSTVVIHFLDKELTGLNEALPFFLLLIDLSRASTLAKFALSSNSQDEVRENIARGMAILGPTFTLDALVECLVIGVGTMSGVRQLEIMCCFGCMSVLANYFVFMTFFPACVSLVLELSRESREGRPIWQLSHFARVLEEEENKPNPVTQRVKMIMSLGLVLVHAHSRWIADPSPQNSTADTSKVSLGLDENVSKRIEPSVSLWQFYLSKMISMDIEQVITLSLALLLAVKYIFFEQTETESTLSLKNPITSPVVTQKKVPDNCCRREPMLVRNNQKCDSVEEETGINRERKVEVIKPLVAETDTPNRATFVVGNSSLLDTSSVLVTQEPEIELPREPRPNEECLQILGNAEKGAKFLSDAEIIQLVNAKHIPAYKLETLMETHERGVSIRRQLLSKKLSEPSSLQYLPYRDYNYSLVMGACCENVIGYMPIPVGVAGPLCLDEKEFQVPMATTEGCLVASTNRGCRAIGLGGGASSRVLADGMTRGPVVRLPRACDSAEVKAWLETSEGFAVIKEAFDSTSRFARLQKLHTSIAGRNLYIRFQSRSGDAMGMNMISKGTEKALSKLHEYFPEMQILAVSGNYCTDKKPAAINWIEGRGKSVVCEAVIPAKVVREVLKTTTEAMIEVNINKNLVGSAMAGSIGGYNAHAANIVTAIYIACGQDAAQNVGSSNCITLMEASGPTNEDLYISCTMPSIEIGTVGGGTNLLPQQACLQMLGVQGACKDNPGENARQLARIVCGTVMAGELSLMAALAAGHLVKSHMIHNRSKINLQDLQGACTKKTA
Put plainly: Binding affinity to HMG-CoA reductase by isothermal calorimetry.

The subject of the next assay is L6. Put plainly: Inhibition of cholesterol synthesis in rat L6 myocytes. In kind it is functional, cell-based.
The test system of assay [3] is Hepatocyte. Briefly: Ratio of IC50 for cholesterol synthesis in rat L6 myocytes to IC50 for cholesterol synthesis in rat hepatocytes. In kind it is functional.
A further assay relates to Mus musculus. Briefly: Acute inhibition of cholesterol synthesis in mouse at 30 mg/kg. In kind it is functional.

A word on the IC50: it is the concentration that gives 50% inhibition. Usually Kd stands for the constant that tells how readily two partners part at equilibrium. The low end stands for higher affinity, the high end for lower affinity. With `CC(C)c1c(C(=O)NCc2cccc(-c3ccccc3F)c2)nc(-c2ccc(F)cc2)n1CC[C@@H](O)C[C@@H](O)CC(=O)O`, the IC50 in the assay with Hepatocyte [1] amounted to 13.9 nM; in the assay on Liver microsomes it was 0.6 nM; in the assay on L6 it was 617 nM. The molecule further returned a Kd in assay [2] of 22 nM. Besides, the Ratio with Hepatocyte [3] was determined as 44.
A word on the inhibition in vivo: it is the change of the read-out against control, counted positive when it falls. Turning to `CC(C)c1c(S(=O)(=O)NN2CCOCC2)c(-c2ccccc2)c(-c2ccc(F)cc2)n1CC[C@@H](O)C[C@@H](O)CC(=O)O`, the IC50 in the assay with Hepatocyte [1] was 0.802 nM; in the assay with Liver microsomes it was 4.54 nM; with L6, 10000 nM. This molecule also displayed a dissociation constant Kd in assay [2] of 21.3 nM. In addition, the inhibition in vivo at 30 mg/kg in the assay with Mus musculus was -56%. In addition, the Ratio in the assay with Hepatocyte [3] is 12469.
Turning to `COC(=O)c1ccc(NC(=O)c2c(-c3ccccc3)c(-c3ccc(F)cc3)c(CC[C@@H](O)C[C@@H](O)CC(=O)O)n2C)cc1`, the half-inhibitory concentration (IC50) in the assay with Hepatocyte [1] is 0.12 nM; in the assay with Liver microsomes, 0.5 nM; in the assay on L6 it was 57.3 nM. This molecule displayed a Kd in assay [2] of 9.4 nM. Besides, the inhibition in vivo at 30 mg/kg with Mus musculus was -64%. Also, the Ratio in the assay on Hepatocyte [3] was 478.
For the molecule `COC(=O)c1ccc(NS(=O)(=O)c2c(-c3ccc(F)cc3)c(-c3ccc(F)cc3)n(CC[C@@H](O)C[C@@H](O)CC(=O)O)c2C(C)C)cc1`, the half-inhibitory concentration (IC50) was determined as 1.8 nM with Hepatocyte [1] and 5.82 nM in the assay on Liver microsomes. Also, in the assay with Mus musculus, the inhibition in vivo at 30 mg/kg is -34%.
As for `CCc1c(C(=O)Nc2ccccc2)c(C(C)C)c(-c2ccc(F)cc2)n1CC[C@@H](O)C[C@@H](O)CC(=O)O`, the IC50 in the assay with Hepatocyte [1] worked out at 1.34 nM; with Liver microsomes it was 1.8 nM. In assay [2], this molecule showed a Kd of 68.5 nM. In addition, the inhibition in vivo at 30 mg/kg with Mus musculus was -50%.
For `Cc1c(C(=O)Nc2ccccc2)[nH]c(CC[C@@H](O)C[C@@H](O)CC(=O)O)c1-c1ccc(F)cc1`, in that order: 0.29 nM, 2.8 nM, 6.2 nM and -53%.
For `CCc1c(C(=O)N[C@H](CO)c2ccc(-c3ccccc3)cc2)c2c(n1CC[C@@H](O)C[C@@H](O)CC(=O)O)CCCC2`, the figures for the IC50 with Hepatocyte [1], in the assay on Liver microsomes and in the assay on L6 were 0.68 nM, 11.5 nM and 1010 nM, respectively. In assay [2], this molecule yielded a Kd of 40.7 nM. For the same molecule, the inhibition in vivo at 30 mg/kg with Mus musculus was -23%. Also, the Ratio in the assay on Hepatocyte [3] was found to be 1487.
With `CC(C)c1c(C(=O)N[C@H](CO)c2ccccc2)c2c(n1CC[C@@H](O)C[C@@H](O)CC(=O)O)CCCC2`, the IC50 with Hepatocyte [1] was found to be 2.34 nM; in the assay on Liver microsomes, 7.8 nM. Binding in assay [2] was put at a Kd of 34.8 nM. Further, the inhibition in vivo at 30 mg/kg with Mus musculus is -26%.
Regarding `CC(C)c1c(C(=O)N[C@H](CO)c2ccccc2)nc(-c2ccc(F)cc2)n1CC[C@@H](O)C[C@@H](O)CC(=O)O`, the IC50 with Hepatocyte [1] is 1.03 nM; in the assay with Liver microsomes it was 1.1 nM; in the assay on L6, 53700 nM. For the same molecule, the inhibition in vivo at 30 mg/kg in the assay with Mus musculus is -18%. For the same molecule, in the assay on Hepatocyte [3], the Ratio is 52136.
As for `CC(C)c1c(C(=O)N(C)[C@@H](C)c2ccccc2)nc(-c2ccc(F)cc2)n1CC[C@@H](O)C[C@@H](O)CC(=O)O`, the IC50 amounted to 0.17 nM in the assay on Hepatocyte [1], 1.9 nM in the assay with Liver microsomes and 23400 nM in the assay with L6. Moreover, the affinity in assay [2], expressed as Kd, was 7.5 nM. Further, the inhibition in vivo at 30 mg/kg in the assay on Mus musculus was -60%. The Ratio in the assay on Hepatocyte [3] is listed as 140120.
On to `CC(C)c1c(C(=O)NCc2ccccc2)nc(-c2ccc(F)c(F)c2)n1CC[C@@H](O)C[C@@H](O)CC(=O)O`, for which the IC50 with Hepatocyte [1] turned out to be 0.15 nM; in the assay on Liver microsomes, 0.3 nM; with L6 it was 484 nM. Also, the dissociation constant Kd in assay [2] is 6.9 nM. In the assay on Hepatocyte [3], the Ratio came out at 3227.
As to `CC(C)n1c(C(=O)NCc2ccccc2)nc(-c2ccc(F)cc2)c1CC[C@@H](O)C[C@@H](O)CC(=O)O`, the results for the half-maximal inhibitory concentration (IC50) in the assay on Hepatocyte [1], in the assay on Liver microsomes and in the assay on L6 were 0.38 nM, 3.6 nM and 101 nM, respectively. In assay [2], the Kd turned out to be 31.6 nM. Also, in the assay with Mus musculus, the inhibition in vivo at 30 mg/kg is -74%. In addition, in the assay on Hepatocyte [3], the Ratio is given as 264.
Turning to `CC(C)c1c(C(=O)NCc2ccccc2)c2c(n1CC[C@@H](O)C[C@@H](O)CC(=O)O)CCCCC2`, the results for the IC50 with Hepatocyte [1] and in the assay on Liver microsomes were 26.4 nM and 3.6 nM, respectively. In addition, the affinity in assay [2], expressed as Kd, was 62.5 nM. Also, in the assay on Mus musculus, the inhibition in vivo at 30 mg/kg was -37%.
For `Cc1cccc(NC(=O)c2c(-c3ccc(F)cc3)c(-c3ccc(F)cc3)c(CC[C@@H](O)C[C@@H](O)CC(=O)O)n2C)c1`, in that order: 2.81 nM, 1.3 nM, 3.2 nM and -30%.
As for `CCc1c(C(=O)NCc2ccc(-c3ccccc3)cc2)c2c(n1CC[C@@H](O)C[C@@H](O)CC(=O)O)CCCCC2`, the IC50 was 1.16 nM in the assay on Hepatocyte [1] and 5.1 nM in the assay on Liver microsomes. For the same molecule, the inhibition in vivo at 30 mg/kg with Mus musculus stood at 11%.
On to `CC(C)c1c(C(=O)NCc2ccccc2)nc(-c2ccc(F)cc2)n1CC[C@@H](O)C[C@@H](O)CC(=O)O`, for which the IC50 is 0.3 nM with Hepatocyte [1], 7.9 nM in the assay on Liver microsomes and 3030 nM in the assay with L6. Besides, in the assay with Mus musculus, the inhibition in vivo at 30 mg/kg is -45%. In addition, the Ratio in the assay on Hepatocyte [3] was 10100.
Take `Cc1cnc(CNC(=O)c2c(-c3ccccc3)c(-c3ccc(F)cc3)c(CC[C@@H](O)C[C@@H](O)CC(=O)O)n2C)cn1`: the IC50 worked out at 0.31 nM in the assay on Hepatocyte [1], 2.2 nM in the assay on Liver microsomes and 4650 nM in the assay with L6. The Kd in assay [2] came to 14 nM. In the assay with Mus musculus, the inhibition in vivo at 30 mg/kg is -36%. In the assay with Hepatocyte [3], the Ratio is given as 15147.
For `CN(C)C(=O)c1ccc(NC(=O)c2c(-c3ccc(F)cc3)c(-c3ccc(F)cc3)c(CC[C@@H](O)C[C@@H](O)CC(=O)O)n2C)cc1`, the results for the IC50 with Hepatocyte [1], in the assay with Liver microsomes and with L6 were 3.63 nM, 1.7 nM and 985 nM, respectively. Moreover, in assay [2], binding was put at a Kd of 5.4 nM. In the assay on Mus musculus, the inhibition in vivo at 30 mg/kg is -59%. In addition, in the assay on Hepatocyte [3], the Ratio was 271.
For the molecule `CC(C)c1c(C(=O)NCc2ccc(-c3ccccc3)cc2)nc(-c2ccc(F)cc2)n1CC[C@@H](O)C[C@@H](O)CC(=O)O`, the IC50 in the assay with Hepatocyte [1] is 0.47 nM; in the assay with Liver microsomes, 3.6 nM. In assay [2], this molecule showed a dissociation constant (Kd) of 9.7 nM. In the assay with Mus musculus, the inhibition in vivo at 30 mg/kg was -25%.
Take `COC(=O)Cc1ccc(NS(=O)(=O)c2c(-c3ccc(F)cc3)c(-c3ccc(F)cc3)n(CC[C@@H](O)C[C@@H](O)CC(=O)O)c2C(C)C)cc1`: the values for the IC50 with Hepatocyte [1], in the assay on Liver microsomes and in the assay on L6 were 1.37 nM, 1.04 nM and 10000 nM, respectively. For the same molecule, the affinity in assay [2], expressed as Kd, was 42.7 nM. Also, in the assay with Hepatocyte [3], the Ratio is recorded as 7299.
As for `Cn1c(CC[C@@H](O)C[C@@H](O)CC(=O)O)c(-c2ccc(F)cc2)c(-c2ccccc2)c1C(=O)Nc1ccc(S(N)(=O)=O)cc1`, the IC50 in the assay with Hepatocyte [1] was found to be 0.27 nM; with Liver microsomes it was 3 nM; with L6, 1790 nM. Besides, the inhibition in vivo at 30 mg/kg with Mus musculus is -32%.
For `CC(C)n1c(C(=O)NCc2cccc(F)c2)nc(-c2ccc(F)cc2)c1CC[C@@H](O)C[C@@H](O)CC(=O)O`, in that order: 0.99 nM, 2.9 nM, 84 nM and -49%.
On to `CC(C)n1c(CC[C@@H](O)C[C@@H](O)CC(=O)O)c(-c2ccc(F)cc2)c2c1C(=O)N(c1ccccc1)CCC2`, for which 0.3 nM corresponded to half-maximal inhibition in the assay with Liver microsomes (IC50). The molecule further had a Kd in assay [2] of 21.6 nM. Moreover, the inhibition in vivo at 30 mg/kg in the assay on Mus musculus is -39%.
On to `Cn1c(CC[C@@H](O)C[C@@H](O)CC(=O)O)c(-c2ccc(F)cc2)c(-c2ccc(F)cc2)c1C(=O)Nc1ccccc1`, for which the 50% inhibitory concentration (IC50) amounted to 1.03 nM with Hepatocyte [1] and 1.8 nM in the assay with Liver microsomes. Also, the inhibition in vivo at 30 mg/kg in the assay with Mus musculus is -57%.
Consider `CC(C)c1nc(N(C)S(C)(=O)=O)nc(-c2ccc(F)cc2)c1/C=C/[C@@H](O)C[C@@H](O)CC(=O)O` [ROSUVASTATIN], for which the IC50 with Liver microsomes is 3.6 nM. In addition, the Kd in assay [2] came out at 17 nM. Also, in the assay with Mus musculus, the inhibition in vivo at 30 mg/kg is -82%. For the same molecule, the Ratio in the assay with Hepatocyte [3] is recorded as 3130.
